A word on the IC50: it is the concentration at which inhibition is half-maximal. The ED50 is the dose that gives a 50% effect, or the effect in half of the subjects. High values mean weaker potency, low ones greater potency.

Where a name gives a salt, the structure may show the parent alone.

One assay concerns the target T1, CCK-B receptor (Mus musculus, UniProt P56481).
T1 construct: crude membrane specimen from mouse cerebral cortex; from tissue; host or cells: cerebral cortex of male ddY mice, crude membranes
T1 sequence (P56481 1-453): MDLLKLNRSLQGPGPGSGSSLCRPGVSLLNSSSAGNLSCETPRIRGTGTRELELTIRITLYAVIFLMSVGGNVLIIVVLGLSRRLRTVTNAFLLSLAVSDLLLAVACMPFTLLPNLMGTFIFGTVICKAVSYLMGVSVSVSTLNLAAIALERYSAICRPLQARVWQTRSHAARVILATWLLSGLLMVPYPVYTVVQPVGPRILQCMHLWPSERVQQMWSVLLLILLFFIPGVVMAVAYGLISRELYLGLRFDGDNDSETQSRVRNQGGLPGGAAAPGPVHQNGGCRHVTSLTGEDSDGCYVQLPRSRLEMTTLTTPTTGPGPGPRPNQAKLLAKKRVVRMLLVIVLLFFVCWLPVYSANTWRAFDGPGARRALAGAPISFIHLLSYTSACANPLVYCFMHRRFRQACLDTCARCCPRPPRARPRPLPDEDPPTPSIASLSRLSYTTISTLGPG
Briefly: CCK-B receptor antagonism: displacement of [3H]CCK-8 from crude membrane of cerebral cortex. It is filed as binding, mouse (male ddY). The conditions noted are these: [3H]CCK-8 1 nM, 90 min, 25° C. As for the experimental part: (§1) The pharmacological effect of compounds (I) prepared in Examples above were evaluated in vitro with respect to antagonistic activity against gastrin receptor, CCK-B receptor or CCK-A receptor, using fundic gland cells of guinea pig, crude membrane specimen from mouse cerebral cortex, or crude membrane specimen from mouse pancreas, respectively.
(§2) Male Hartley guinea pig (450-600 g) or male ddY mouse (24-30 g) were used.
(§3) (2) CCK-A Receptor Antagonism and CCK-B Receptor Antagonism Preparation of CCK receptor preparations Male ddY mice (24 to 30 g) were killed by decapitation and cerebral cortex (CCK-B) and pancreas (CCK-A) were extracted immediately. Each of cerebral cortex and pancreas was mixed with 50 mM Tris-HCl buffer (pH 7.4) and homogenized with a teflon-glass homogenizer and polytron homogenizer to obtain crude membrane specimens.
(§4) Preparation of test compounds and procedures of displacing assay
(§5) A 1M solution of a compound to be tested in DMSO is prepared and diluted with 50% DMSO to obtain a ten-fold dilution series.
(§6) The reaction is initiated by the addition of crude membrane specimen to solutions of different concentration each containing [^3 H]CCk-8 (final concentration, 1 nM). The mixture is incubated for 90 min at 25° C., filtered through glass filter with aspiration and washed with a cooled 50 mM Tris buffer. After the addition of Aquazol-2 cocktail the radioactivity is counted. The same procedure was repeated using 50% DMSO solution or Ceruletide (final concentration, 1 μM) instead of a solution of test compound so as to obtain the control value regarding total binding or the value regarding non-specific binding, respectively.
(§7) The IC50 was determined by plotting the ratio (%) of specific binding of a test compound to that of control on semilogarithmic graph and obtaining the concentration corresponding to 50%, wherein: specific binding of control=total binding (cpm)--non-specific binding (cpm); and specific binding of test compound=total binding (cpm)--non-specific binding (cpm).
For orientation: Loss of bound radioactivity is the signal in a displacement assay; it reports binding, not function.

In a further assay the target is T2, CCK-A receptor (Mus musculus, UniProt O08786).
T2 construct: crude membrane specimen from mouse pancreas; from tissue; host or cells: pancreas of male ddY mice, crude membranes
T2 sequence (O08786 1-436): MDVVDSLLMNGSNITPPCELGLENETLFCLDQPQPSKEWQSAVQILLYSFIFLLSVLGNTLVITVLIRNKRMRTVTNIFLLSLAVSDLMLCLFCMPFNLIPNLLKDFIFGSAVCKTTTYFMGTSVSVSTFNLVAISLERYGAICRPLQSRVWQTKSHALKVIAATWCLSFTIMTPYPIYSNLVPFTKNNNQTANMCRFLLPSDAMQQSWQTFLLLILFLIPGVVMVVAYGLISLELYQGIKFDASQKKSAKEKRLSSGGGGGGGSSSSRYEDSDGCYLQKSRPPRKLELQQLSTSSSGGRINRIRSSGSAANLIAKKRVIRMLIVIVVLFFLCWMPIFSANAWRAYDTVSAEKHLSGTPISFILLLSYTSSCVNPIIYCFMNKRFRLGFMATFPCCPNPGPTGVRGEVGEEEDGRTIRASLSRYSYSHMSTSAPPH
Description: CCK-A receptor antagonism: displacement of [3H]CCK-8 from crude membrane of pancreas. The conditions noted are these: [3H]CCK-8 1 nM, 90 min, 25° C. Type of assay: binding, mouse (male ddY). How it is done:
as §1, §2, §3, §4, §5, §6, §7

A further assay has as its system gastric acid secretion. Description: Inhibitory effect on pentagastrin-stimulated gastric acid secretion in anesthetized rat (perfused stomach, Schild method). Type of assay: in vivo, rat (Sprague Dawley). The settings on record: intraduodenal (i.d.), 0.5% M.C. suspension. From the text:
Anti-acid secreting function of carbamoylmethylurea derivative (I) of the present invention has been confirmed by the in vivo experiment (cf. Schild Method; Experiment 1 below). […] From the results of these experiments, it is apparent that the carbamoylmethylurea derivative (I) has an anti-acid secreting function, and is an excellent gastrin receptor antagonist and/or CCK-B receptor antagonist which has enough functional separativeness from CCK-A receptor.
Experiment 1 In Vivo Test
Evaluation of Inhibitory Effect on Gastric Acid Secretion by Child Method
Twenty four hour starved (ad libitum for water) male Sprague Daily rats (8-week-old) were anesthetized with urethane (1.5 g/kg S.C.) and kept breathing with esophagus cannulas. After laparotomy, esophagus cannulas were inserted orally up to proventriculus and ligated around gastric cardiac. Perfusion cannulas were inserted from duodenum into stomach and ligated around pylorus. Another cannulas were placed into duodenum and ligated for administration of drug. After sutra of abdomen, stomach was perfused via the esophagus cannulas with physiological saline (37° C.) while collecting perfusate for a 15 min interval. The perfusate was subjected to titration with 0.001N NaOH solution to determine the acidity. When the basal acid secretion became stable, pentagastrin ([…])was administered in a sustained manner via common carotid vein for about 90 min until the acid secretion reached approximately the highest level, when a test compound (0.5% M.C. suspension) was administered into duodenum through cannulas. The perfusate was collected for a 15 min interval to monitor the acid secretion for 90 min. The percent inhibition was calculated as follows:
Percent inhibition (%)=100×(A-B)/(C-B)
A: the minimum value of total acidity observed after the administration of a test compound;
B: the total acidity obtained immediately before the administration of pentagastrin; and
C: the total acidity obtained immediately before the administration of a test compound.

For another assay, the target named is T3, gastrin receptor (Cavia porcellus, UniProt H0VZC5).
T3 construct: stomach was extracted from each animal immediately, from which gastric glands were prepared; from tissue; host or cells: gastric (fundic) glands of male Hartley guinea pigs
T3 sequence (H0VZC5 1-426): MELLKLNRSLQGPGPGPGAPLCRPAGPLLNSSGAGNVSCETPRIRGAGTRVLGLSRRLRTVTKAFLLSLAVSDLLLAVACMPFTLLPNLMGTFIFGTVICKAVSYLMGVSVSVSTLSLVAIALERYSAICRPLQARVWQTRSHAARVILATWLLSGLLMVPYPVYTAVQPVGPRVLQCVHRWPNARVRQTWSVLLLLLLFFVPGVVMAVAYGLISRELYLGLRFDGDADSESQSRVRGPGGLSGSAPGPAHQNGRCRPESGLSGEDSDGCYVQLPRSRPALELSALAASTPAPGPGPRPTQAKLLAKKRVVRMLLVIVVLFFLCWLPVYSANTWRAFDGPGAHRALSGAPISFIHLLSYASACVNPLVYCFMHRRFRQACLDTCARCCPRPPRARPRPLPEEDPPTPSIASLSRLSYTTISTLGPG
Description: Gastrin receptor antagonism: displacement of 125I-labeled gastrin from gastric glands. Type of assay: binding, guinea pig (male Hartley). The conditions noted are these: guinea pig fundic gastric glands; 125I-gastrin 0.2 nM; 30 min, 25° C. As for the experimental part:
as §1, §2
(1) Gastrin Receptor Antagonism
Preparation of gastric glands
Male Hadley guinea pigs (450-600 g) were killed by bleeding and stomach was extracted from each animal immediately, from which gastric glands were prepared.
Preparation of test compounds and procedures of displacing assay A 1M solution of a compound to be tested in DMSO is prepared and diluted with 50% DMSO to obtain a ten-fold dilution series.
The reaction is initiated by the addition of gastric glands to solutions of different concentration each containing ^125 I-labeled gastrin (final concentration, 0.2 nM). The mixture is incubated for 30 min at 25° C., centrifuged at 2000 rpm for 5 min and the supernatant is removed by aspiration. To the pellet is added ice-cooled incubation buffer and mixed gently, followed by an immediate centrifugation and removal of the supernatant by aspiration. The radioactivity is counted on gamma counter. The same procedure was repeated using 50% DMSO solution or human gastrin I (final concentration, 2 μM) instead of a solution of test compound so as to obtain the control value regarding total binding or the value regarding non-specific binding, respectively.
as §7

Consider `CC(C)(C)OC(=O)CN(C(=O)CNC(=O)Nc1cccc(C(F)(F)F)c1)c1ccccc1C(=O)C1CCCCC1` [Compound 15b, Cyclohexyl-(2-(N-(t-butoxycarbonylmethyl)-N-(N'-(m-trifluoromethylphenyl)ureidomethylcarbonyl)amino)phenyl)ketone], for which the results for the IC50 on CCK-B receptor, at CCK-A receptor and on gastrin receptor were 6 nM, 1150 nM and 5 nM, respectively. Moreover, in the assay on gastric acid secretion (Rattus norvegicus), the ED50 worked out at 0.026 mg/kg.
As to `CC(C)(C)OC(=O)CN(C(=O)CNC(=O)Nc1cccc(CC(=O)O)c1)c1ccccc1C(=O)c1ccccc1` [Compound 8i, 2-(N-(tert-Butoxycarbonylmethyl)-N'-(m-(carboxymethyl)phenyl)ureidomethylcarbonylamino)benzophenone], the IC50 was 3 nM at CCK-B receptor, 1700 nM on CCK-A receptor and 2 nM on gastrin receptor.
In the case of `Cc1ccc(NC(=O)NCC(=O)N(CC(=O)OC(C)(C)C)c2ccccc2C(=O)c2ccccc2)cc1` [Compound 7z, 2-(N-(tert-Butoxycarbonylmethyl)-N'-(p-tolyl)ureidomethylcarbonylamino)benzophenone], the IC50 at CCK-B receptor turned out to be 66 nM; at CCK-A receptor it was 1900 nM; at gastrin receptor it was 6 nM.
On to `CC(C)(C)NC(=O)CN(C(=O)CNC(=O)Nc1cccc(C(=O)O)c1)c1ccccc1C(=O)c1ccccc1` [Compound 16b, 2-(N-(tert-Butylcarbamoylmethyl)-N'-(m-carboxyphenyl)ureidomethylcarbonylamino)benzophenone], for which the IC50 on CCK-B receptor is 210 nM; at CCK-A receptor it was greater than 10000 nM; at gastrin receptor, 6 nM.
Take `CC(C)(C)OC(=O)CN(C(=O)CNC(=O)Nc1cccc(C(=O)O)c1)c1ccccc1C(=O)c1ccccc1` [Compound 8hb, 2-[(tert-Butoxycarbonylmethyl)-[3-(m-(carboxyphenyl)ureidomethylcarbonyl]]aminobenzophenone calcium salt]: the IC50 on CCK-B receptor was determined as 54 nM; at gastrin receptor it was 3 nM. In addition, the “Inhibitory Effect on acid secretion in rat ED50, i.d.” value with gastric acid secretion (calcium salt) was 0.007 mg/kg.
With `C=CCOC(=O)c1cccc(NC(=O)NCC(=O)N(CC(=O)NC(C)(C)C)c2ccccc2C(=O)c2ccccc2)c1` [Compound 16a, 2-(N-(tert-Butylcarbamoylmethyl)-N'-(m-(aryloxycarbamoyl)phenyl)ureidomethylcarbonylamino)benzophenone], the figures for the IC50 at CCK-B receptor, at CCK-A receptor and on gastrin receptor were 215 nM, 4400 nM and 25 nM, respectively.
Take `COC(=O)Cc1cccc(NC(=O)NCC(=O)N(CC(=O)OC(C)(C)C)c2ccccc2C(=O)c2ccccc2)c1` [Compound 9m]: the IC50 on CCK-B receptor was found to be 11 nM; on CCK-A receptor, 1350 nM; on gastrin receptor, 2 nM.
For the compound `CC(C)(C)OC(=O)CN(C(=O)CNC(=O)Nc1ccc(Cl)cc1)c1ccccc1C(=O)c1ccccc1` [Compound 7y, 2-(N-(tert-Butoxycarbonylmethyl)-N'-(p-chlorophenyl)ureidomethylcarbonylamino)benzophenone], the IC50 is 190 nM at CCK-B receptor, 1800 nM at CCK-A receptor and 42 nM on gastrin receptor.
Taken in the same sequence, the figures for `CC(C)(C)OC(=O)CN(C(=O)CNC(=O)Nc1cccc(OCC(=O)O)c1)c1ccccc1C(=O)c1ccccc1` [Compound 8j, 2-(N-(tert-Butoxycarbonylmethyl)-N'-(m-(carboxymethyloxy)phenyl)ureidomethylcarbonylamino)benzophenone] were 8 nM, 2200 nM and 3 nM.
`CC(C)(C)OC(=O)CN(C(=O)CNC(=O)Nc1cccc(C(=O)O)c1)c1ccccc1C(=O)C1CCCCC1` [Compound 15d, Cyclohexyl-(2-(N-(t-butoxycarbonylmethyl)-N-(N'-(m-carboxyphenyl)ureidomethylcarbonyl)amino)phenyl)ketone]: the IC50 on CCK-B receptor was determined as 6 nM; on CCK-A receptor, 2000 nM; on gastrin receptor, 3 nM.
With `CC(C)(C)OC(=O)CN(C(=O)CNC(=O)Nc1cccc(-c2nnn(C(c3ccccc3)(c3ccccc3)c3ccccc3)n2)c1)c1ccccc1C(=O)c1ccccc1` [Compound 7f, 2-(N-(tert-Butoxycarbonylmethyl)-N'-(m-(2-(triphenylmethyl)tetrazol-5-yl)phenyl)ureidomethylcarbonylamino)benzophenone], the IC50 on CCK-B receptor worked out at 8 nM; at CCK-A receptor, 1650 nM; at gastrin receptor, 1 nM.

Source of the values: US5739162A, “Carbamoylmethylurea derivatives” (Shionogi & Co., Ltd., priority 1994, dated 1998).
